The results in this text go back to ChEMBL document CHEMBL5465560, “Selectivity Literature for EUbOPEN Chemogenomic Library” (2024).

Assay [1] has as its target T1, Tyrosine-protein kinase JAK3 (Homo sapiens, UniProt P52333).
T1 sequence (P52333 whole entry): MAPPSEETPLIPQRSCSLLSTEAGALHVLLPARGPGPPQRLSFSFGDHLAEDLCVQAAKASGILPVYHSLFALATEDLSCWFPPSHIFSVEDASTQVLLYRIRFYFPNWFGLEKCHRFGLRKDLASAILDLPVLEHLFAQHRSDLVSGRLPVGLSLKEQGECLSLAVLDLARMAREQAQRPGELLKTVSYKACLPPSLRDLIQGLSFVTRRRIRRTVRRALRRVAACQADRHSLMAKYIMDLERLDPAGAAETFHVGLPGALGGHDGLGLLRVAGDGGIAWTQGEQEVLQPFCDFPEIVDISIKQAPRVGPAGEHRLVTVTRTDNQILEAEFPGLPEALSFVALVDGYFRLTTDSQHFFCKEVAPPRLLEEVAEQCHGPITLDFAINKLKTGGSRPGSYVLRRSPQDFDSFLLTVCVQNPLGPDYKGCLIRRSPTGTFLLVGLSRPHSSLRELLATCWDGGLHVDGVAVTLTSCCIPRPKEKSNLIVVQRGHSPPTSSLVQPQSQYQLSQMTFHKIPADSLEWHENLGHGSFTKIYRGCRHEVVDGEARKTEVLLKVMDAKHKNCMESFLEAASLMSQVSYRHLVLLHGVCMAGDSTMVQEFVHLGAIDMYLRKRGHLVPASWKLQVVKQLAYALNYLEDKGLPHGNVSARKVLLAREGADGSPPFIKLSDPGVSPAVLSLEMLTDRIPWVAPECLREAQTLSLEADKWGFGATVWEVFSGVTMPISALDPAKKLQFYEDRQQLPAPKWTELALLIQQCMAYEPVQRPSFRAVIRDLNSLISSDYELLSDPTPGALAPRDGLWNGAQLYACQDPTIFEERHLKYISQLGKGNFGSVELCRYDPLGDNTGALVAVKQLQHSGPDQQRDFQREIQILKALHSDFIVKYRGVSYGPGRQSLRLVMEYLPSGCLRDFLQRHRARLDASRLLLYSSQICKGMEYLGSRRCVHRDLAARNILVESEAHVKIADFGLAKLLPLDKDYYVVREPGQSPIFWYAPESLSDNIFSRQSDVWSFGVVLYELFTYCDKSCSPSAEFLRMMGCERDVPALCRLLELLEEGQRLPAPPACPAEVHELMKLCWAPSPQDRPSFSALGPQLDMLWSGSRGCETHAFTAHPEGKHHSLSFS
Briefly: Selectivity interaction (Enyzmatic assay) EUB0000601a JAK3.

For a further assay, the target named is D(3) dopamine receptor (Homo sapiens, UniProt P35462). Briefly: Selectivity interaction (GPCR panel (PDSP screen)) EUB0001079a DRD3. The note with it: at 10 µM.
The target of assay [2] is T2, Serine/threonine-protein kinase Sgk1 (Homo sapiens) (UniProt O00141).
T2 sequence (whole entry): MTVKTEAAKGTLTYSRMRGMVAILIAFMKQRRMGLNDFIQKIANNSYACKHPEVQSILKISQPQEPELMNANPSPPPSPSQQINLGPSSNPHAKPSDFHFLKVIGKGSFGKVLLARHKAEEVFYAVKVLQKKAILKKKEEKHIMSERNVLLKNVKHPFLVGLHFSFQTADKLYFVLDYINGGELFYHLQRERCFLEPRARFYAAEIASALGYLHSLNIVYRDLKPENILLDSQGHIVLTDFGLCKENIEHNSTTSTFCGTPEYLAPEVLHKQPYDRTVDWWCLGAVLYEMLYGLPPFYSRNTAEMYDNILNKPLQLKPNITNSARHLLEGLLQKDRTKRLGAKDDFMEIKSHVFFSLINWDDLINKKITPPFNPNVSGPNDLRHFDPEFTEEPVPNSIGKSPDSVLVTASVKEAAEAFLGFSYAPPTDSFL
Nature of the assay: Selectivity interaction (KinomeScan (DiscoverX)) EUB0001079a SGK1. The note with it: at 1 µM.

Assay [3] addresses Phosphatidylinositol 4-phosphate 3-kinase C2 domain-containing subunit beta (Homo sapiens) (UniProt O00750). Briefly: Selectivity interaction (KinomeScan (DiscoverX)) EUB0000655a PIK3C2B. To be noted: at 10 µM.
In assay [4] the target is Serine/threonine-protein kinase PAK 2 (Homo sapiens) (UniProt Q13177). Nature of the assay: Selectivity interaction (Kinase panel (Invitrogen)) EUB0000639a PAK2. The note with it: at 200 nM.
Assay [5] deals with T3, Serine/threonine-protein kinase TAO1 (Homo sapiens) (UniProt Q7L7X3).
T3 sequence (whole entry): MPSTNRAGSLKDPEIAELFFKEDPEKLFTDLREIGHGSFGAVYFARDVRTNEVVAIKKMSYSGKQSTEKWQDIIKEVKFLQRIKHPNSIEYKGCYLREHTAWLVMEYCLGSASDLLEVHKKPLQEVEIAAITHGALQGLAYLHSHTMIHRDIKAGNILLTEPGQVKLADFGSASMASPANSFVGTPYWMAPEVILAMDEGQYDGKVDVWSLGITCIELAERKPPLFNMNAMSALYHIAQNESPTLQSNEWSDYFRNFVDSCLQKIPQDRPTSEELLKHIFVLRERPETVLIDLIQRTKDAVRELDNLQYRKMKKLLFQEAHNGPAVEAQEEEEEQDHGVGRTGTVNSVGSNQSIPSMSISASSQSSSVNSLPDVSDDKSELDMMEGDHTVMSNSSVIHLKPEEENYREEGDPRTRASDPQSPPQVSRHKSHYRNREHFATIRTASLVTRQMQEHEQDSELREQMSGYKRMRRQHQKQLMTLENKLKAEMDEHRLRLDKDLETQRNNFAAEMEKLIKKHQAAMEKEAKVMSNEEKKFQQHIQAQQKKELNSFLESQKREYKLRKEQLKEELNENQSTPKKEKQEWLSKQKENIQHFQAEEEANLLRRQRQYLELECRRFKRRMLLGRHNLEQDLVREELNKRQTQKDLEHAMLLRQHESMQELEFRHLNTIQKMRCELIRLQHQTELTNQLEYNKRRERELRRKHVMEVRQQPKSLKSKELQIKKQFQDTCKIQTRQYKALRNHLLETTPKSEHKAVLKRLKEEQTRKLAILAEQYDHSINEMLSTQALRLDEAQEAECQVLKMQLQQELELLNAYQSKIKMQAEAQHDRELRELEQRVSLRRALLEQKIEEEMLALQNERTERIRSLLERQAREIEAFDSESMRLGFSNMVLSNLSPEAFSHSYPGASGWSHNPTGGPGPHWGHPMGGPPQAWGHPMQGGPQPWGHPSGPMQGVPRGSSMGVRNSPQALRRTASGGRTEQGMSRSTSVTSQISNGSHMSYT
Briefly: Selectivity interaction (KinomeScan (DiscoverX)) EUB0000229b TAOK1. The note with it: at 10 µM.

Phosphatidylinositol 4-phosphate 3-kinase C2 domain-containing subunit beta (Homo sapiens), sequence (O00750 whole entry, the tested form may be a part): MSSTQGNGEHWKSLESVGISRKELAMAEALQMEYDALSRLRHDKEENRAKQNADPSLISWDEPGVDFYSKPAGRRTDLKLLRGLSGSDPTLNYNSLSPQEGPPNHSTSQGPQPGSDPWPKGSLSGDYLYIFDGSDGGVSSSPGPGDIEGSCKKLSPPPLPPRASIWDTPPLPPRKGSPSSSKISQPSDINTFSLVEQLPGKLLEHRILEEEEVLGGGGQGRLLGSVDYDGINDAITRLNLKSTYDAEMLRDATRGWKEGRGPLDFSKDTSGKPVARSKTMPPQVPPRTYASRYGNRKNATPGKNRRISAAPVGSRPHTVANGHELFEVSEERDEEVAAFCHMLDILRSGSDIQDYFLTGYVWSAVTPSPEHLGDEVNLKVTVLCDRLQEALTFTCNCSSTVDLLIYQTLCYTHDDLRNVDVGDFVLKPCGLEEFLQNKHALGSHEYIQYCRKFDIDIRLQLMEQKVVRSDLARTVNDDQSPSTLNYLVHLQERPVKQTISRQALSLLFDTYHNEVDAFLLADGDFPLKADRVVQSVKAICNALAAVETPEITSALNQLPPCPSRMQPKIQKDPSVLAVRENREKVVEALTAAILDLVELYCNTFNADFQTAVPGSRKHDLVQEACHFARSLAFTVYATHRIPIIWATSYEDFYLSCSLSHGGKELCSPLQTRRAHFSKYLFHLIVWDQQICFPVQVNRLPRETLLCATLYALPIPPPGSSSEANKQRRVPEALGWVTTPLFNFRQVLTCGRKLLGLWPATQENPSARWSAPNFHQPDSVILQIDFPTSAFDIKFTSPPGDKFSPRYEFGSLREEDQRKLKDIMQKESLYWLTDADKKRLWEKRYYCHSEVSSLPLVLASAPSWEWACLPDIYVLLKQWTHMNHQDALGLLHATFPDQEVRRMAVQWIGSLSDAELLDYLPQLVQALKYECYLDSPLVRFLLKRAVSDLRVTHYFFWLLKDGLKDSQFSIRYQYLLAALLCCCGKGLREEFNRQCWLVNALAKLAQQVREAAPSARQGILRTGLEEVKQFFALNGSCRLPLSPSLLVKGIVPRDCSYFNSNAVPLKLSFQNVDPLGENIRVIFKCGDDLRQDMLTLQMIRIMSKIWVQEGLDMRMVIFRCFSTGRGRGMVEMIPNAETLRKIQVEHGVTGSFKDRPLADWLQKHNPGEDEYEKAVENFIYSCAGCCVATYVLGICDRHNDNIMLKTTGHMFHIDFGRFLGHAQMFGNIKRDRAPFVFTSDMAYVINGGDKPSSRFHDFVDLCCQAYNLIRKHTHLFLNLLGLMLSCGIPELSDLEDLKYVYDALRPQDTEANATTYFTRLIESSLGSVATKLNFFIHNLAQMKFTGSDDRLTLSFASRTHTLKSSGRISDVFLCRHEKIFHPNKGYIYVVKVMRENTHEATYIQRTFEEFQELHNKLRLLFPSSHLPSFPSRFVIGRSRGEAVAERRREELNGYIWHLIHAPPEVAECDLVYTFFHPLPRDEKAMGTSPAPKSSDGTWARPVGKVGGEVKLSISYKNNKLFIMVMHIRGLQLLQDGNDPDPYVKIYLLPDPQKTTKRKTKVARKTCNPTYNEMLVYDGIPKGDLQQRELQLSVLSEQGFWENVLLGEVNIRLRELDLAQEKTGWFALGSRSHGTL
D(3) dopamine receptor, sequence (P35462 whole entry): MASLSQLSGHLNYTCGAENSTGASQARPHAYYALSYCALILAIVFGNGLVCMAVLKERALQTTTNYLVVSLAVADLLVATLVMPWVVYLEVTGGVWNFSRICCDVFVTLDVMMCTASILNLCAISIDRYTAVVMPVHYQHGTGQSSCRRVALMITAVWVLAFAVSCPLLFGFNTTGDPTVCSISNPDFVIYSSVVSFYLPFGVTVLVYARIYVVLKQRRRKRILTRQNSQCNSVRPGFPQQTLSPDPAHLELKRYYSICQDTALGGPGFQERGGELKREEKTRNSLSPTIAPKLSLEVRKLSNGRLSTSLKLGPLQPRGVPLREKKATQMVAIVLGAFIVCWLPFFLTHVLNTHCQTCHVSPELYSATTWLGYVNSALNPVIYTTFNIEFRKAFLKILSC
Serine/threonine-protein kinase PAK 2 (Homo sapiens), sequence (Q13177 whole entry): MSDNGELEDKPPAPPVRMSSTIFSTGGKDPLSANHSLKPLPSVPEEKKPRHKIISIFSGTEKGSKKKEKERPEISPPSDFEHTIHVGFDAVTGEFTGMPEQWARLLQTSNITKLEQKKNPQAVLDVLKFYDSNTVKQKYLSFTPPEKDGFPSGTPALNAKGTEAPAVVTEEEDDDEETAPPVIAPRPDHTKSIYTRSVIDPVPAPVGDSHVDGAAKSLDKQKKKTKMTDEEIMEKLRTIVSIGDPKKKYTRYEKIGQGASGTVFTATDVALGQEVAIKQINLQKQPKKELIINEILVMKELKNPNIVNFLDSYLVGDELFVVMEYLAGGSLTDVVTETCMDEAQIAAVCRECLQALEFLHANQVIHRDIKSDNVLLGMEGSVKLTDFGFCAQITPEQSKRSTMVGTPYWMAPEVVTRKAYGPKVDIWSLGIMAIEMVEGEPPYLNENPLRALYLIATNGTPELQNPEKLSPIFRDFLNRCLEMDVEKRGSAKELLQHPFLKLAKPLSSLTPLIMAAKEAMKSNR

As a reminder, the IC50 is the concentration needed to halve the response being measured. The low end stands for higher potency, the high end for lower potency. In assay [1], `CCc1cc(Nc2nccc(-c3c(-c4ccc(OC)c(C(=O)Nc5c(F)cccc5F)c4)nc4ccccn34)n2)c(OC)cc1N1CCC(N2CCN(S(C)(=O)=O)CC2)CC1` had an IC50 greater than 10 µM.

Regarding `Nc1cnc(N2CCc3cc(S(=O)(=O)Nc4c(F)cc(Cl)cc4F)cc(N4CCCC4=O)c32)nc1` [TP-020n], on D(3) dopamine receptor, the % of inhibition was 7.88%. The % of control in assay [2] stood at 100%.

Consider `CN(C)CCOc1ccc(-c2nc(-c3ccncc3)c(-c3ccc4c(c3)CC/C4=N\O)[nH]2)cc1`, for which, in assay [3], the % of control is 64%.

The compound `CC[C@@H]1[C@H](F)C(=O)N[C@@H]1COc1nccc2cc(C(N)=O)c(OC)cc12` [ZIMLOVISERTIB] displayed a % of inhibition in assay [4] of 3.6%.

`COc1cc(N(C)c2ccnc3ccc(C(F)(F)F)cc23)cc(OC)c1OC` showed a % binding in assay [5] of 65%.
